Assay results reported in patent US20150038430A1, “THERAPEUTIC PEPTIDOMIMETIC MACROCYCLES” (AILERON Therapeutics, Inc., priority 2008, published 2015).
Numbered stars: 1 amine (or outer) side, 2 acyl side, 3 side chain; on linkers, the order of the positions; unused ones are H or OH. Bridge positions count the residues as written; N and C are the ends. Square brackets hold non-standard residues; d marks the D form. Peptide text beside a SMILES is read from it. ξ: configuration not given here. ξαMeNle(6-ylidene) = CC(CCCC=[*:3])(N[*:1])C(=O)[*:2]; Nle = CCCC[C@H](N)C(=O)O

Experiments:
[1] = system: SEMK2 human leukemia xenograft; assay: SEMK2 human leukemia xenograft model; type: in vivo, NOD-SCID mice; conditions: daily tail vein injection, 3, 10 or 30 mg/Kg/day
Method: To determine the anti-oncogenic activity of peptidomimetic macrocycles of the invention in vivo, the compounds are, for example, given alone (IP, IV, SC, PO, by inhalation or nasal routes) or in combination with sub-optimal doses of relevant chemotherapy (e.g., cyclophosphamide, doxorubicin, etoposide). In one example, 5×10^6 SEMK2 cells (established from the bone marrow of a patient with acute lymphoblastic leukemia) that stably express luciferase are injected by tail vein in NOD-SCID, SCID-beige or NOD.IL2rg KO mice 3 hrs after they have been subjected to total body irradiation. Non-radiated mice may also be used for these studies. If left untreated, this form of leukemia is fatal in 3 weeks in this model. The leukemia is readily monitored, for example, by injecting the mice with D-luciferin (60 mg/kg) and imaging the anesthetized animals (e.g., Xenogen In Vivo Imaging System, Caliper Life Sciences, Hopkinton, Mass.). Total body bioluminescence is quantified by integration of photonic flux (photons/sec) by Living Image Software (Caliper Life Sciences, Hopkinton, Mass.). […] Optionally, the mice are imaged throughout the experiment every other day and survival monitored daily for the duration of the experiment. […]

[2] = system: MCF7; assay: MTT cell viability assay, MCF7; type: cell-based, human; conditions: 20 μM, MTT 48 hrs, FIG. 1
Method: Cell viability assays shown in FIGS. 1-32 were performed according to the following protocol. Tumor cell lines were grown in specific serum-supplemented media (growth media) as necessary. A day prior to the initiation of the study, cells were plated at optimal cell density (15,000 to 25,000 cells/well) in 200 μl growth media in microtiter plates. The next day, cells were washed twice in serum-free/phenol red-free RPMI complete media (assay buffer) and a final volume of 100 μl assay buffer was added to each well. Human peripheral blood lymphocytes (hPBLs) were isolated from Buffy coats (San Diego Blood Bank) using Ficoll-Paque gradient separation and plated on the day of the experiment at 25,000 cells/well.
Peptidomimetic macrocycles were diluted from 1 mM stocks (100% DMSO) in sterile water to prepare 400 μM working solutions. The peptidomimetic macrocycles and controls were then diluted 10 or […] or alternatively serially two-fold diluted in assay buffer in dosing plates to provide concentrations of either 40 and 20 μM or between 1.2 and 40 μM, respectively. […]
Towards the end of the 4 hour incubation time, 22 μl FBS was added to each well for a total concentration of 10% FBS. […] At the end of the incubation period, MTT assay was performed according to manufacturer's instructions (Sigma, catalog #M2128) and absorbance was measured at 560 nm using Dynex Opsys MR Plate reader. […]

[3] = biological target: Mcl-1; assay: Kd, μM | Mcl-1
From the text: Table printed on a drawing sheet, Figure 27
Head of the field: Kd, μM | Mcl-1
First copying reader's note: The last row (ABT-737) is a small-molecule comparator; the three plots above the table are not copied.
Where the first naming reader finds the target: head: Kd, μM | Mcl-1

CCCC[C@H](NC(=O)C1(C)CCCC=CCCCC(C)(NC(=O)[C@H](C)NC(=O)[C@H](CC(C)C)NC(=O)[C@H](Cc2c[nH]cn2)NC(=O)[C@H](CCCNC(=N)N)NC(=O)[C@H](C)NC(=O)[C@@H](NC(=O)[C@H](CC(N)=O)NC(=O)[C@H](CCCNC(=N)N)NC(=O)[C@@H](NC(=O)[C@@H](NC(=O)[C@H](CC(=O)O)NC(C)=O)[C@@H](C)CC)[C@@H](C)CC)[C@@H](C)CC)C(=O)N[C@@H](C(C)C)C(=O)NCC(=O)N[C@@H](CC(=O)O)C(=O)N1)C(=O)N[C@@H](CC(=O)O)C(=O)N[C@@H](CCCNC(=N)N)C(=O)N[C@@H](CO)C(=O)N[C@H](C(N)=O)[C@@H](C)CC (stereo partly drawn) [SP-1] (Ac-DIIRNIARHLA[ξαMeNle(6-ylidene)]VGD[ξαMeNle(6-ylidene)][Nle]DRSI-NH2; staple 12-16)
tumor burden / tumor progression (total body bioluminescence) [1]: decreases tumor burden | sensitivity of MCF7 (breast cancer) [2]: resistant | Kd [3]: < 0.1 µM
